Broadly, the inhibition is the relative decrease from the control value, in per cent.

The test system of one test is Streptococcus pyogenes (ATCC #97-03 14289). Briefly: Anti-microbial screen (growth inhibition, OD 570 nm). Conditions: ATCC97, 4 h. Type of test: cell-based. On the procedure: Streptococcus pyogenes (ATCC #97-03 14289) are grown in Todd Hewitt Broth (THB) (Difco Laboratories #0492-17-6) overnight until they reach an optical density of (OD=0.636@570 nm) by reading 0.1 ml in a 96 well microtiter plate in a Molecular Devices Thermomax. This preparation is kept frozen as stocks in 30% v/v glycerol in 1.5 ml aliquots at −70° C. until use. Prior to screening, 1.5 ml aliquots are thawed and diluted into 50 ml THB. 200 μl of this dilution is added to 92 wells of microtiter plate. To three wells THB (200 μl) is added to serve as a blank and a sterility control. Test compounds in DMSO and appropriate concentrations of DMSO are added to Growth/Solvent Controls at 0 time. Plates are read at 0 time at 570 nm in the Molecular Devices plate reader to obtain compounds correction factors for insoluble or colored compounds. Plates are read again at 4 hrs.
Compounds are assayed at a concentration of 170 μg/ml. Percent inhibition for each compound is calculated using the following formulae:
Color correct=(O.D. 0 hr −Blank 0 hr)—(Solvent Control 0 hr−Blank 0 hr)
% Inhibition=100−(O.D. test compound 4 hr−Blank 4 hr−color correct) divided by (O.D. growth/solvent control 4 hr−Blank 4 hr)
Consider `CCOP(=O)(CC(=O)Nc1ccc2c(c1)C(=O)N(CCC(=O)N(CCN(C)C)CC(N)=O)C(c1ccc(C(F)(F)F)cc1)C2)OCC` (centres unmarked), for which at 170 µg/mL the inhibition was 98.9%.

On to `C=CCN(CC(N)=O)C(=O)CCN1C(=O)c2cc(NC(=O)CP(=O)(OCC)OCC)ccc2CC1c1cccc(Oc2ccc(Cl)c(Cl)c2)c1` (centres unmarked), for which the inhibition at 170 µg/mL turned out to be 98.5%.

Staying with this test, now noted: ATCC97, compounds assayed at 170 μg/ml, growth in Todd Hewitt Broth read at 570 nm at 4 hrs, read-out: % Inhibition.
With `CN(C)CCN(CC(N)=O)C(=O)c1ccc(CN2C(=O)c3cc(NC(=O)c4c(F)cccc4F)ccc3CC2c2ccc(C(C)(C)C)cc2)cc1` (centres unmarked), the inhibition at 170 µg/mL turned out to be 99%.

As to `CN(C)CCN(CC(N)=O)C(=O)c1ccc(CN2C(=O)c3cc(NC(=O)CCC4CCCC4)ccc3CC2c2ccc(C(F)(F)F)cc2)cc1` (centres unmarked), the inhibition at 170 µg/mL amounted to 99%.

With `CCCCCCCC(=O)Nc1ccc2c(c1)C(=O)N(CCC(=O)N(CCN(C)C)CC(N)=O)C(c1ccc(F)c(F)c1)C2` (centres unmarked), the inhibition at 170 µg/mL was found to be 98.4%.

With `CN(C)CCN(CC(N)=O)C(=O)CCN1C(=O)c2cc(NC(=O)c3ccc(I)cc3)ccc2CC1c1ccccn1` (centres unmarked), the inhibition at 170 µg/mL was determined as 99.2%.

Regarding `CCCCCC/C=C/C(=O)Nc1ccc2c(c1)C(=O)N(CCC(=O)N(CCN(C)C)CC(N)=O)C(c1ccc(SC)cc1)C2` (centres unmarked), the inhibition at 170 µg/mL amounted to 99.9%.

Consider `CN(C)CCN(CC(N)=O)C(=O)CCN1C(=O)c2cc(NC(=O)c3cc(C(F)(F)F)cc(C(F)(F)F)c3)ccc2CC1c1ccc(F)c(F)c1` (centres unmarked), for which the inhibition at 170 µg/mL turned out to be 99.2%.

Regarding `CCCN(CC(N)=O)C(=O)c1ccc(CN2C(=O)c3cc(NC(=O)c4ccc(OC(F)(F)F)cc4)ccc3CC2c2ccc(OCCCN(C)C)cc2)cc1` (centres unmarked), the inhibition at 170 µg/mL amounted to 99.7%.

For the molecule `Cc1ccc(C2Cc3ccc(NC(=O)c4ccc(F)c(F)c4)cc3C(=O)N2Cc2ccc(C(=O)N(CCN(C)C)CC(N)=O)cc2)cc1` (centres unmarked), the inhibition at 170 µg/mL is 98.5%.

Take `Cc1ccc(C2Cc3ccc(NC(=O)c4cc(C(F)(F)F)cc(C(F)(F)F)c4)cc3C(=O)N2CCC(=O)N(CCN(C)C)CC(N)=O)cc1` (centres unmarked): the inhibition at 170 µg/mL stood at 99.2%.

`CCCCCCCC(=O)Nc1ccc2c(c1)C(=O)N(CCC(=O)N(CCN(C)C)CC(N)=O)C(c1ccc(C)cc1)C2` (centres unmarked): the inhibition at 170 µg/mL worked out at 99.9%.

With `CN(C)CCN(CC(N)=O)C(=O)c1ccc(CN2C(=O)c3cc(NC(=O)/C=C/c4ccccc4C(F)(F)F)ccc3CC2c2ccc(C(C)(C)C)cc2)cc1` (centres unmarked), the inhibition at 170 µg/mL was determined as 98.5%.

`CN(C)CCN(CC(N)=O)C(=O)CCN1C(=O)c2cc(NC(=O)CCC3CCCC3)ccc2CC1c1cccc2ccccc12` (centres unmarked): the inhibition at 170 µg/mL was 99.8%.

Consider `CN(C)CCN(CC(N)=O)C(=O)c1ccc(CN2C(=O)c3cc(NC(=O)c4cccc(C(F)(F)F)c4F)ccc3CC2c2cccc(C#N)c2)cc1` (centres unmarked), for which the inhibition at 170 µg/mL stood at 99.5%.

As to `COc1ccc(Br)c(C(=O)Nc2ccc3c(c2)C(=O)N(Cc2ccc(C(=O)N(CC(N)=O)Cc4cccc(C(F)(F)F)c4)cc2)C(c2ccc(OCCCN(C)C)cc2)C3)c1` (centres unmarked), the inhibition at 170 µg/mL was determined as 99.4%.

As to `COc1cc(OC)cc(C2Cc3ccc(NC(=O)CC(C)CC(C)(C)C)cc3C(=O)N2CCC(=O)N(CCN(C)C)CC(N)=O)c1` (centres unmarked), the inhibition at 170 µg/mL stood at 99%.

As to `COc1cc(OC)cc(C2Cc3ccc(NC(=O)c4ccc(F)c(F)c4)cc3C(=O)N2CCC(=O)N(CCN(C)C)CC(N)=O)c1` (centres unmarked), the inhibition at 170 µg/mL came out at 99.5%.

As for `C=CCN(CC(N)=O)C(=O)CCN1C(=O)c2cc(NC(=O)C(=O)c3c(C)cc(C)cc3C)ccc2CC1c1ccc(OCCCN(C)C)cc1` (centres unmarked), the inhibition at 170 µg/mL worked out at 98.7%.

In the case of `CCCCCCCC(=O)Nc1ccc2c(c1)C(=O)N(CCC(=O)N(CCC)CC(N)=O)C(c1ccc(OCCCN(C)C)cc1)C2` (centres unmarked), the inhibition at 170 µg/mL was determined as 98.8%.

As for `CN(C)CCN(CC(N)=O)C(=O)CCN1C(=O)c2cc(NC(=O)c3ccco3)ccc2CC1c1cccc2ccccc12` (centres unmarked), the inhibition at 170 µg/mL was found to be 98.2%.

For `CN(C)CCCOc1ccc(C2Cc3ccc(NC(=O)CCC4CCCC4)cc3C(=O)N2Cc2ccc(C(=O)N(CC(N)=O)Cc3ccccc3)cc2)cc1` (centres unmarked), the inhibition at 170 µg/mL came to 99.5%.

In the case of `CN(C)CCN(CC(N)=O)C(=O)CCN1C(=O)c2cc(NC(=O)c3cc(C(F)(F)F)cc(C(F)(F)F)c3)ccc2CC1c1ccc2ccccc2n1` (centres unmarked), the inhibition at 170 µg/mL came out at 98.2%.

Consider `CN(C)CCCOc1ccc(C2Cc3ccc(NC(=O)CCC4CCCC4)cc3C(=O)N2CCC(=O)N(CC(N)=O)C2CC2)cc1` (centres unmarked), for which the inhibition at 170 µg/mL came to 98.2%.

On to `CN(C)CCCOc1ccc(C2Cc3ccc(NC(=O)c4cccc(C(F)(F)F)c4F)cc3C(=O)N2Cc2ccc(C(=O)N(CC(N)=O)Cc3cccc(C(F)(F)F)c3)cc2)cc1` (centres unmarked), for which the inhibition at 170 µg/mL worked out at 99.6%.

As to `NC(=O)CN(Cc1cccc(C(F)(F)F)c1)C(=O)CCN1C(=O)c2cc(NC(=O)CCC3CCCC3)ccc2CC1c1cccc(Oc2ccc(Cl)c(Cl)c2)c1` (centres unmarked), the inhibition at 170 µg/mL came out at 98.7%.

On to `CCCCCC/C=C/C(=O)Nc1ccc2c(c1)C(=O)N(Cc1ccc(C(=O)N(CCOC)CC(N)=O)cc1)C(c1ccc(C(C)(C)C)cc1)C2` (centres unmarked), for which the inhibition at 170 µg/mL was determined as 98.2%.

Consider `CN(C)CCN(CC(N)=O)C(=O)CCN1C(=O)c2cc(NC(=O)CC3CC4CCC3C4)ccc2CC1c1ccc(C(F)(F)F)cc1` (centres unmarked), for which the inhibition at 170 µg/mL was found to be 99.2%.

Take `CN(C)CCN(CC(N)=O)C(=O)CCN1C(=O)c2cc(NC(=O)c3cnccn3)ccc2CC1c1cccc2ccccc12` (centres unmarked): the inhibition at 170 µg/mL stood at 99%.

Turning to `CN(C)CCCOc1ccc(C2Cc3ccc(NC(=O)Cc4cccc(C(F)(F)F)c4)cc3C(=O)N2CCC(=O)N(CCN(C)C)CC(N)=O)cc1` (centres unmarked), the inhibition at 170 µg/mL amounted to 99.8%.

As to `CN(C)CCCOc1ccc(C2Cc3ccc(NC(=O)CC4CCCC4)cc3C(=O)N2Cc2ccc(C(=O)N(CC(N)=O)Cc3ccccc3)cc2)cc1` (centres unmarked), the inhibition at 170 µg/mL came to 99.2%.

As for `CN(C)CCN(CC(N)=O)C(=O)CCN1C(=O)c2cc(NC(=O)CC3CCCC3)ccc2CC1c1ccc(C(C)(C)C)cc1` (centres unmarked), the inhibition at 170 µg/mL was determined as 99.5%.

`CN(C)CCCOc1ccc(C2Cc3ccc(NC(=O)c4ccc(I)cc4)cc3C(=O)N2CCC(=O)N(CCN(C)C)CC(N)=O)cc1` (centres unmarked): the inhibition at 170 µg/mL came out at 99.8%.

`CSc1ccc(C2Cc3ccc(NC(=O)CC(C)CC(C)(C)C)cc3C(=O)N2Cc2ccc(C(=O)N(CCN(C)C)CC(N)=O)cc2)cc1` (centres unmarked): the inhibition at 170 µg/mL turned out to be 99.5%.

With `CN(C)CCN(CC(N)=O)C(=O)c1ccc(CN2C(=O)c3cc(NC(=O)/C=C/c4ccccc4C(F)(F)F)ccc3CC2c2ccc(F)c(F)c2)cc1` (centres unmarked), the inhibition at 170 µg/mL turned out to be 98.4%.

Take `CC(CC(=O)Nc1ccc2c(c1)C(=O)N(CCC(=O)N(CC(N)=O)C1CC1)C(c1ccc(F)c(F)c1)C2)CC(C)(C)C` (centres unmarked): the inhibition at 170 µg/mL was 99.7%.

In the case of `CCCCCC/C=C/C(=O)Nc1ccc2c(c1)C(=O)N(CCC(=O)N(CCN(C)C)CC(N)=O)C(c1ncc[nH]1)C2` (centres unmarked), the inhibition at 170 µg/mL is 99.4%.

For `CN(C)CCCOc1ccc(C2Cc3ccc(NC(=O)CCC4CCCC4)cc3C(=O)N2CCC(=O)N(CCN(C)C)CC(N)=O)cc1` (centres unmarked), the inhibition at 170 µg/mL was determined as 98.6%.

As for `CN(C)CCCOc1ccc(C2Cc3ccc(NC(=O)CC4CC5CCC4C5)cc3C(=O)N2Cc2ccc(C(=O)N(CC(N)=O)Cc3ccccc3)cc2)cc1` (centres unmarked), the inhibition at 170 µg/mL is 98.2%.

For `CN(C)CCN(CC(N)=O)C(=O)c1ccc(CN2C(=O)c3cc(NC(=O)c4ccc(I)cc4)ccc3CC2c2cccnc2)cc1` (centres unmarked), the inhibition at 170 µg/mL was 98.8%.

As for `CN(C)CCN(CC(N)=O)C(=O)CCN1C(=O)c2cc(NC(=O)c3ccccc3F)ccc2CC1c1ccc(C(C)(C)C)cc1` (centres unmarked), the inhibition at 170 µg/mL worked out at 98.2%.

With `CN(C)CCN(CC(N)=O)C(=O)CCN1C(=O)c2cc(NC(=O)c3cccc(C(F)(F)F)c3F)ccc2CC1c1ccccc1` (centres unmarked), the inhibition at 170 µg/mL came to 99.2%.

Regarding `CN(C)CCN(CC(N)=O)C(=O)CCN1C(=O)c2cc(NC(=O)c3cccc(C(F)(F)F)c3F)ccc2CC1c1ccc(C(F)(F)F)cc1` (centres unmarked), the inhibition at 170 µg/mL amounted to 99.9%.

Turning to `CC1CCC(C(=O)Nc2ccc3c(c2)C(=O)N(CCC(=O)N(CCN(C)C)CC(N)=O)C(c2ccc(OCCCN(C)C)cc2)C3)CC1` (centres unmarked), the inhibition at 170 µg/mL was determined as 99%.

For `CN(C)CCN(CC(N)=O)C(=O)c1ccc(CN2C(=O)c3cc(NC(=O)CC4CC5CCC4C5)ccc3CC2c2ccc(C(F)(F)F)cc2)cc1` (centres unmarked), the inhibition at 170 µg/mL amounted to 98.1%.

`Cc1ccc(C2Cc3ccc(NC(=O)COc4ccc5ccccc5c4)cc3C(=O)N2CCC(=O)N(CCN(C)C)CC(N)=O)cc1` (centres unmarked): the inhibition at 170 µg/mL amounted to 99.2%.

Turning to `CCCC(CCC)C(=O)Nc1ccc2c(c1)C(=O)N(Cc1ccc(C(=O)N(CC(N)=O)Cc3ccccc3)cc1)C(c1ccc(OCCCN(C)C)cc1)C2` (centres unmarked), the inhibition at 170 µg/mL was 99.5%.

As to `CN(C)CCN(CC(N)=O)C(=O)c1ccc(CN2C(=O)c3cc(NC(=O)c4ccc(OC(F)(F)F)cc4)ccc3CC2c2ccccn2)cc1` (centres unmarked), the inhibition at 170 µg/mL is 99.5%.

Consider `CCCCCCCC(=O)Nc1ccc2c(c1)C(=O)N(CCC(=O)N(CC(N)=O)Cc1cccc(C(F)(F)F)c1)C(c1ccc(OCCCN(C)C)cc1)C2` (centres unmarked), for which the inhibition at 170 µg/mL turned out to be 98.5%.

Take `CN(C)CCN(CC(N)=O)C(=O)CCN1C(=O)c2cc(NC(=O)c3ccc(F)c(F)c3)ccc2CC1c1ccc(C(C)(C)C)cc1` (centres unmarked): the inhibition at 170 µg/mL amounted to 98.7%.

Take `CN(C)CCN(CC(N)=O)C(=O)c1ccc(CN2C(=O)c3cc(NC(=O)c4ccc(OC(F)(F)F)cc4)ccc3CC2c2cccc(C#N)c2)cc1` (centres unmarked): the inhibition at 170 µg/mL stood at 99.5%.

With `CN(C)CCN(CC(N)=O)C(=O)c1ccc(CN2C(=O)c3cc(NC(=O)CCC4CCCCC4)ccc3CC2c2ccc(C(F)(F)F)cc2)cc1` (centres unmarked), the inhibition at 170 µg/mL was 99.6%.

As for `Cc1ccc2oc(C(=O)Nc3ccc4c(c3)C(=O)N(CCC(=O)N(CC(N)=O)Cc3cccc(C(F)(F)F)c3)C(c3ccc(F)c(F)c3)C4)cc(=O)c2c1` (centres unmarked), the inhibition at 170 µg/mL came to 99.2%.

The values are drawn from US6452009B1, “4-unsubstituted dihydroisoquinolinone derivatives and combinatorial libraries thereof” (Lion Bioscience AG, priority 1999, dated 2002).
